Results taken from US12427151B2, “Compositions and method of treating cancer” (The Regents of the University of California, priority 2017, dated 2025).

Tests used:
Assay in all cases: Cell proliferation assay (BrdU incorporation)
Format in all cases: cell-based, mouse
B16F10 melanoma = details: B16F10, 4-hr incubation
Protocol: (§1) Proliferative activity of tumor cell line, L5178 (a), YAC-1 lymphoma (b), B16F10 melanoma (c) after 4-hr incubation in suitable media containing indicated concentrations of 6-HAP or mitomycin C (10 μg/mL). Proliferative activity of cells was determined by monitoring BrdU incorporation. The data represent mean±SE of four individual experiments.
(§2) Cell culture and cell proliferation assay. B16F10 mouse melanoma, Pam212, L5178 and YAC-1 mouse […] cell lines were obtained from American Type Culture Collection. Pam212, L5178 and YAC-1 cell lines were maintained in RPMI-1640 supplemented with sodium pyruvate (1 mM), nonessential amino acids (0.1 mM), penicillin (100 unit/mL), streptomycin (100 μg/mL) and 10% heat-inactivated fetal bovine serum (FBS) or horse serum at 37° C. under atmosphere of 5% (v/v) CO2 in air. B16F10 cell line was maintained in DMEM supplemented with penicillin (100 unit/mL), streptomycin (100 μg/mL) and 10% heat-inactivated FBS. NHEKs were obtained from Invitrogen (Life technologies, Grand Island, NY) and maintained in EpiLife medium (Life technologies) supplemented with 60 μM Calcium, epidermal growth factors, penicillin and streptomycin. After 4-hr (tumor cell lines) or 24-hr (NHEK) incubation with 6-HAP, proliferative activity of cells was colorimetrically determined by monitoring BrdU incorporation with Cell Proliferation kit according to the manual (Roche).

L5178 lymphoma = details: L5178, 4-hr incubation
Protocol: as §1, §2

YAC-1 lymphoma = details: YAC-1, 4-hr incubation
Protocol: as §1, §2

Measured: BrdU incorporation

ONc1ncnc2nc[nH]c12 [6-HAP, 6-N-hydroxyaminopurine]
inhibited: all assays above
